Experimental data taken from EP0516015A1, “Substituted decarestrictines, methods for their preparation and use thereof” (HOECHST AKTIENGESELLSCHAFT, priority 1991, dated 1992).
In brackets after ≈: the same amount, converted by molar mass.

Legend:
[1] = system: Cholesterinbiosynthese; assay: Inhibition of cholesterol biosynthesis from [14C] sodium acetate in HEP-G2 cell monolayers; assay type: cell-based; settings: Homo sapiens, HepG2, HEP-G2-Zellen, 1 h preincubation, 3 h with [14C] sodium acetate, read-out: Cholesterin in Prozent der Kontrolle; for activity at 0.01 µM: Konzentration 10⁻⁸ M
Excerpt: Monolayer von HEP-G2-Zellen in lipoproteinfreiem Nährmedium werden mit entsprechenden Konzentrationen der zu prüfenden Substanzen aus den Beispielen 1, 3, 4, 5, 6, 8 und 15 eine Stunde vorinkubiert. Nach Zugabe der ¹⁴C-markierten Biosynthesevorstufe [¹⁴C]Natriumacetat wird die Inkubation für 3 Stunden fortgesetzt. Danach wird ein Teil der Zellen alkalisch verseift, bei vorheriger Zugabe eines internen Standards von ³H-Cholesterin. Die Lipide der verseiften Zellen werden mit einem Gemisch aus Chloroform-Methanol extrahiert. Dieses Lipidgemisch wird nach Zusatz von Trägercholesterin präparativ dünnschichtchromatographisch aufgetrennt, die Cholesterinbande nach Anfärbung isoliert und die aus dem ¹⁴C-Precursor gebildete Menge ¹⁴C-Cholesterin szintigraphisch bestimmt. In einem aliquoten Teil der Zellen wurde Zellprotein bestimmt, sodaß die in der Zelleinheit pro mg Zellprotein aus ¹⁴C-Vorläufer gebildete Menge ¹⁴C-Cholesterin berechnet werden kann. Zum Vergleich für die Hemmwirkung eines zugesetzten Prüfpräparates dient die Kontrolle, so daß direkt die Hemmung der Cholesterinbiosynthese bei einer bestimmten molaren Konzentration des Prüfpräparates im Medium angegeben werden kann. In aliquoten Anteilen der Zellkultur wird die Intaktheit der Zellkultur und die fehlende Zellschädigung durch Präparateeinwirkung morphologisch (Lichtmikroskopie) beurteilt und biochemisch durch Bestimmung der Laktat-Dehydrogenase Ausschüttung im Inkubationsmedium gemessen. Als Standardpräparat wurde ®Lovastatin (Merck-Sharp-Dohm) benutzt.

[2] = system: Rhinovirus II; assay: Antiviral activity in cell culture (CPE, neutral red uptake); assay type: cell-based; settings: Enterovirus; Rhino. II; HeLa or Vero cells, 72 h; MHK = concentration at which about 50 % of the cells survived the infection
[3] = system: Herpes I; assay: as above; assay type: cell-based; settings: HeLa or Vero cells, 72 h, MHK = concentration at which about 50 % of the cells survived the infection
[4] = system: Herpes II; assay: as above; assay type: cell-based; settings: HeLa or Vero cells, 72 h, MHK = concentration at which about 50 % of the cells survived the infection
[5] = system: Vaccina; assay: microbe, parasite or virus in culture; assay type: cell-based; settings: 72 h, read-out: MHK
[6] = system: Influenza A; assay: microbe, parasite or virus in culture; assay type: cell-based; settings: 72 h, read-out: MHK
[7] = in vitro; settings: hela or vero cells

CC[C@H](C)C(=O)O[C@H]1C[C@@H](C)C=C2C=C[C@H](C)[C@H](CC[C@@H]3C[C@@H](O)CC(=O)O3)[C@H]21 [Lovastatin, reference compound]
activity at 0.01 µM [1]: 55%

CC1CC(O[C@H]2O[C@H](COCc3ccccc3)[C@@H](OCc3ccccc3)[C@H](OCc3ccccc3)[C@H]2OCc2ccccc2)CCC2OC(C)(C)OC2CC(=O)O1 (stereo partly drawn) [Verbindung 1, 4,5-Dihydroxy-O-isopropyliden-10-methyl-1-oxa-8(2,3,4,6-tetra-O-benzyl-α-D-glucopyranosyl-oxy)-2-cyclodecanon]
activity at 0.01 µM [1]: 41%

COC1C=CC(OC)C(OC)CC(=O)OC(C)C1 (stereo not shown) [Verbindung 3, 10-Methyl-4,5,8-trimethoxy-1-oxa-6-cyclodecen-2-on]
activity at 1 µM ([1]; Konzentration 10⁻⁶ M): 28%
activity at 0.01 µM [1]: 33%

CC(=O)OC1CCC(O)C(O)CC(=O)OC(C)C1 (stereo not shown) [Verbindung 4, 8-Acetyloxy-4,5-dihydroxy-10-methyl-1-oxa-cyclodecan-2-on]
activity at 0.01 µM [1]: 45%

CC1CC(O)C2OC2C(O)C(O)CC(=O)O1 (stereo not shown) [Verbindung 5, 2-Carbonyl-10-methyl-1-oxa-4,5,8-trihydroxy-6-cyclodecenoxid]
activity at 0.01 µM [1]: 33%

CC(=O)OC1/C=C/C(OC(C)=O)C(OC(C)=O)CC(=O)OC(C)C1 (stereo not shown) [Verbindung 6, 10-Methyl-1-oxa-4,5,8-triacetyloxy-6-cyclodecen-2-on]
EC50 [2]: 44.4 µg/mL (≈ 130 µM)
activity at 10 µM ([1]; Konzentration 10⁻⁵ M): 32%
activity at 0.1 µM ([1]; Konzentration 10⁻⁷ M): 30%
EC50 [3]: 0.55 µg/mL (≈ 1.61 µM)
EC50 [4]: 0.55 µg/mL (≈ 1.61 µM)
EC50 [5]: 0.49 µg/mL (≈ 1.43 µM)
EC50 [6]: 14 µg/mL (≈ 40.9 µM)
MNTC at 72 h [7]: 133 µg/mL

CC1CC(OC=O)C=CC(O)C(O)CC(=O)O1 (stereo not shown) [Verbindung 8, 4,5-Dihydroxy-8-formyl-oxy-10-methyl-1-oxa-6-cyclodecen-2-on]
activity at 0.01 µM [1]: 67%

CC1CC(O)CCC(O)C(O)CC(=O)O1 (stereo not shown) [Verbindung 15, 10-Methyl-1-oxa-4,5,8-trihydroxy-cyclodecan-2-on]
activity at 0.01 µM [1]: 73%
